Publication PMC9519446, “Discovery of an Orally Active Benzoxaborole Prodrug Effective in the Treatment of Chagas Disease in Non-human Primates” (Nature microbiology, 2022)
Where “and” joins values, the source holds several entries; their conditions need not be identical. Equal entries are not always repeated.

Legend:
[1] = tested on: T. cruzi of diverse genetic types (DTUs); assay: In vitro susceptibility of T. cruzi strains of diverse genetic types (DTUs); assay type: cell-based; conditions: Trypanosoma cruzi
Protocol: C57BL/6J mice were purchased from The Jackson Laboratory (Bar Harbor, ME), and B6.129S7-Ifngtm1Ts/J (IFN-gamma deficient) were bred in-house at the University of Georgia Animal Facility. The SKH-1 “hairless” mice backcrossed to C57BL/6 were a gift from Dr. Lisa DeLouise (University of Rochester). All the animals were maintained in the University of Georgia Animal Facility under specific pathogen–free conditions at 22°C, 50% humidity and in a 12:12 hs light:dark cycle. Male and female mice of 6 to 9 weeks of age were used. All mouse experiments were carried out in strict accordance with the Public Health Service Policy on Humane Care and Use of Laboratory Animals and Association for Assessment and Accreditation of Laboratory Animal Care accreditation guidelines. The protocol was approved by the University of Georgia Institutional Animal Care and Use Committee. […] Parasites genotypes were determined as previously described.
(§1) The in vitro anti-T. cruzi amastiogote activity assay was performed and optimized based on the protocol described previously. The change in tdTomato fluorescence intensity was determined as a measurement of growth over 72 hours of culture. For assaying drug effects on extracellular amastigotes, trypomastigotes were collected from infected Vero cell cultures and converted in acidic media as previously described. Amastigotes (50,000/well) were incubated with 2-fold serial dilutions of compounds for 48 hours. The ATP production was used as an indication of growth in this case, and was measured by ATPlite Luminescence ATP Detection Assay System (PerkinElmer). Both fluorescence and luminescence were read using a BioTek Synergy Hybrid Multi-Mode reader equipped with the software Gene5 v 2.0 (BioTek). The dose-response curve was generated by […] analysis with GraphPad Prism v9.4.0 (GraphPad Software).

[2] = Pharmacokinetic (PK) analysis in NHP; assay type: in vivo, rhesus macaques (Macaca mulatta); conditions: 30 mg/kg dose
Protocol: Mid- and end-regimen PK assessments were also performed. […] Only 1 blood sample was collected at a single time point from each of the 18 animals. […] The plasma samples were provided to Pharmout Labs (Fremont, California) for analysis using LC-MS/MS. […] For calculation of PK parameters, the Cmax (maximum concentrations) and tmax (time to maximum concentrations) were determined by visual inspection of the plasma concentration vs. time curves from the pre-regimen and end-regimen periods. PK calculation was not performed for the mid-regimen PK samples since only 2 time points were collected. The AUC values for the pre- and end-regimen were calculated using the linear-trapezoidal rule with the following equation: AUC(t1-t2)=[(Ct2+Ct1)x(t2-t1)]/2 where t1 and t2 are consecutive sampling time points, AUC(t1-t2) is the fractional area-under-the-curve over time intervals t1 and t2, Ct2 is the concentration at time t2, Ct1 is the concentration at time t1. […] AUC0-∞ was estimated using the following equation: AUC0-∞=[…] Where AUC0-∞ was AUC from zero to infinity, AUClast was the AUC from zero to the last measurable time point, Clast was the concentration at the last measurable time point. AUC0-∞ and t1/2 were not estimated when the terminal elimination phase was not defined. Plasma clearance (CLp) after the IV dose was estimated using the following: CLp = Dose/AUC0-∞.

[3] = tested on: CPSF3 mutant T. cruzi intracellular amastigotes; assay: Intracellular amastigote assay with CPSF3 Asn to His mutant T. cruzi; assay type: cell-based, Trypanosoma cruzi; conditions: for % of maximum: Fig 5.d, CPSF3-mutant
Protocol: as §1
To generate CPSF3 mutant, a RNP c omplex was transfected into Brazil tdTomato strain epimastigotes to target the CPSF3 gene (TcBrA4_0124800), together with a repair template that contained the mutation of Asn^231 to His[21]. The sgRNA targeted the ‘[…]’ site. […] The ultimate resistant parasites were validated to have acquired the Asn^231His mutation in CPSF3 via sequencing.

Cc1c(C(=O)NC(C(=O)OCc2ccc(F)c(F)c2)C(C)C)ccc2c1B(O)OC2 (centres unmarked) [AN14353]
IC50 ([1]; Strain 20290, DTU TcI): 3 nM
IC90 ([1]; Strain 20290, DTU TcI): 5 nM
IC50 ([1]; Strain 20392, DTU TcIV): 5 nM
IC90 ([1]; Strain 20392, DTU TcIV): 10 nM
IC50 ([1]; Strain ARC0704, DTU TcI): 3 nM
IC90 ([1]; Strain ARC0704, DTU TcI): 7 nM
IC50 ([1]; Strain CL, DTU TcVI): 6 nM
IC90 ([1]; Strain CL, DTU TcVI): 18 nM
IC50 ([1]; Strain Colombiana, DTU TcI): 7 nM
IC90 ([1]; Strain Colombiana, DTU TcI): 10 nM
IC50 ([1]; Strain M5631, DTU TcIII): 1 nM
IC90 ([1]; Strain M5631, DTU TcIII): 3 nM
IC50 ([1]; Strain Montalvania, DTU TcI): 1 nM
IC90 ([1]; Strain Montalvania, DTU TcI): 2 nM
IC50 ([1]; Strain Tul8, DTU TcII): 1 nM
IC90 ([1]; Strain Tul8, DTU TcII): 2 nM

Cc1c(C(=O)N[C@H](C(=O)OCC2CCOCC2)C(C)C)ccc2c1B(O)OC2 [AN15368]
exposure [2]: 3.5 to 4.7 µg·h/kg
% of maximum ([3]; 0.10): 3% and 1%
% of maximum ([3]; 0.40): -6%
% of maximum ([3]; 0.70): 2% and -5%
% of maximum ([3]; 1.00): -6% and -2%
% of maximum ([3]; 1.30): -4% and -2% and 5%
% of maximum ([3]; -0.51): 97% and 106% and 96%
% of maximum ([3]; -0.81): 96% and 123% and 105%
% of maximum ([3]; -1.11): 92% and 97% and 122%
IC50 ([3]; Trypanosoma cruzi, read-out: CPSF3 mutant IC50): 500 nM
